According to the NIST ThermoML archive (doi:10.1016/j.jct.2013.01.017):
Numbers after ± are expanded uncertainties.

Details: Liquid, Closed cell (Static) method

For C=CCC [1-butene], the “vapor or sublimation pressure” value (302.9 K) was 343 ± 14 kPa, the “vapor or sublimation pressure” value (307.83 K) was 396 ± 14 kPa and the “vapor or sublimation pressure” value (312.96 K) was 456 ± 14 kPa. For the same molecule, the “vapor or sublimation pressure” value (318.05 K) was 521 ± 14 kPa, the “vapor or sublimation pressure” value (322.94 K) was 593 ± 14 kPa and the “vapor or sublimation pressure” value (328.06 K) was 671 ± 14 kPa. The “vapor or sublimation pressure” value (332.97 K) was 759 ± 14 kPa, the “vapor or sublimation pressure” value (337.99 K) was 855 ± 14 kPa and the “vapor or sublimation pressure” value (342.98 K) was 957 ± 14 kPa. For the same molecule, the “vapor or sublimation pressure” value (347.93 K) was 1069 ± 14 kPa and the “vapor or sublimation pressure” value (353.18 K) was 1197 ± 14 kPa.

With FC(F)(F)C1(F)OC1(F)F (centres undefined) [2,2,3-trifluoro-3-(trifluoromethyl)oxirane] the “vapor or sublimation pressure” value (302.95 K) was 786 ± 14 kPa, the “vapor or sublimation pressure” value (307.93 K) was 896 ± 14 kPa and the “vapor or sublimation pressure” value (312.93 K) was 1015 ± 14 kPa. The “vapor or sublimation pressure” value (317.86 K) was 1150 ± 14 kPa, the “vapor or sublimation pressure” value (322.92 K) was 1298 ± 14 kPa and the “vapor or sublimation pressure” value (327.88 K) was 1474 ± 14 kPa. The “vapor or sublimation pressure” value (332.87 K) was 1658 ± 14 kPa, the “vapor or sublimation pressure” value (337.87 K) was 1864 ± 15 kPa and the “vapor or sublimation pressure” value (342.88 K) was 2075 ± 15 kPa. For the same molecule, the “vapor or sublimation pressure” value (347.85 K) was 2313 ± 15 kPa.

In the case of FCF [difluoromethane], the “vapor or sublimation pressure” value (280.59 K) is reported as 1022 ± 14 kPa, the “vapor or sublimation pressure” value (283.05 K) is reported as 1109 ± 14 kPa and the “vapor or sublimation pressure” value (285.52 K) is reported as 1195 ± 14 kPa. The “vapor or sublimation pressure” value (288.02 K) was 1280 ± 14 kPa, the “vapor or sublimation pressure” value (290.46 K) was 1364 ± 14 kPa and the “vapor or sublimation pressure” value (293.02 K) was 1474 ± 14 kPa. The “vapor or sublimation pressure” value (295.49 K) was 1578 ± 14 kPa, the “vapor or sublimation pressure” value (298.01 K) was 1684 ± 14 kPa and the “vapor or sublimation pressure” value (300.48 K) was 1793 ± 15 kPa. For the same molecule, the “vapor or sublimation pressure” value (302.94 K) was 1918 ± 15 kPa, the “vapor or sublimation pressure” value (305.46 K) was 2051 ± 15 kPa and the “vapor or sublimation pressure” value (307.91 K) was 2179 ± 15 kPa. For the same molecule, the “vapor or sublimation pressure” value (310.48 K) was 2318 ± 15 kPa, the “vapor or sublimation pressure” value (312.9 K) was 2459 ± 15 kPa and the “vapor or sublimation pressure” value (315.43 K) was 2614 ± 15 kPa. The “vapor or sublimation pressure” value (317.89 K) was 2772 ± 15 kPa, the “vapor or sublimation pressure” value (320.41 K) was 2948 ± 15 kPa and the “vapor or sublimation pressure” value (322.92 K) was 3120 ± 15 kPa. The “vapor or sublimation pressure” value (325.42 K) was 3303 ± 15 kPa, the “vapor or sublimation pressure” value (327.9 K) was 3498 ± 16 kPa and the “vapor or sublimation pressure” value (330.35 K) was 3694 ± 16 kPa. The “vapor or sublimation pressure” value (332.91 K) was 3910 ± 16 kPa, the “vapor or sublimation pressure” value (335.4 K) was 4138 ± 16 kPa and the “vapor or sublimation pressure” value (337.93 K) was 4370 ± 16 kPa. The “vapor or sublimation pressure” value (340.43 K) was 4602 ± 17 kPa, the “vapor or sublimation pressure” value (342.88 K) was 4854 ± 17 kPa and the “vapor or sublimation pressure” value (345.4 K) was 5117 ± 17 kPa. For the same molecule, the “vapor or sublimation pressure” value (347.89 K) was 5392 ± 17 kPa.
